Consider two compounds from ChEMBL document CHEMBL3045652, “Biorational glycol diesters as dietary toxins versus bioefficacy of sucrose octanoate against lepidopteran larvae” (Ind Crops Prod, 2012).

Usually EC50 stands for the midpoint of the concentration-response curve. For orientation: LC50 means the concentration that kills 50% of the test population.

≈ marks a conversion by molar mass, not a printed value. Calls of active or inactive are those of the source. The rule behind the calls is not given here.

Test [1] deals with Helicoverpa armigera. The test can be described thus: Antifeedant activity against third-instar larval stage of Helicoverpa armigera fed with artificial diet containing compound assessed as efficiency index of ingested food at 6.02 mg/ml after 3 days (reference value: 52%). The class given is functional.
Test [2] relates to Helicoverpa armigera. The test is described as follows: Insecticidal activity against second-instar larval stage of Helicoverpa armigera fed with artificial diet containing compound assessed as growth inhibition after 7 days. The class given is functional, organism-based. The note with it: for EC50: 168 h.
The subject of test [3] is Spodoptera litura. The test can be described thus: Insecticidal activity against second-instar larval stage of Spodoptera litura fed with artificial diet containing compound assessed as growth inhibition after 7 days. Particulars: for EC50: 168 h. The class given is functional, organism-based.
For test [4], the system named is Spodoptera litura. The test can be described thus: Antifeedant activity against third-instar larval stage of Spodoptera litura fed with artificial diet containing compound assessed as relative consumption rate at 3.72 mg/ml after 3 days (reference value: 2.13 +/- 0.18 mg/mg/day). The class given is functional.
Test [5] concerns Spodoptera litura. The test can be described thus: Insecticidal activity against second-instar larval stage of Spodoptera litura assessed as increase in mortality applied as spray at 1 to 10 mg/ml after 72 hr. Type of test: functional, organism-based.
Test [6] has as its system Spodoptera litura. The test is described as follows: Antifeedant activity against third-instar larval stage of Spodoptera litura fed with artificial diet containing compound assessed as efficiency index of ingested food at 3.72 mg/ml after 3 days (reference value: 64.5%). The class given is functional.
The test system of test [7] is Spodoptera litura. The test is described as follows: Antifeedant activity against third-instar larval stage of Spodoptera litura fed with artificial diet containing compound assessed as relative growth rate at 3.72 mg/ml after 3 days (reference value: 1.37 +/- 0.12 mg/mg/day). The class given is functional.
The test system of test [8] is Spodoptera litura. The test can be described thus: Insecticidal activity against second-instar larval stage of Spodoptera litura fed with artificial diet containing compound assessed as mortality after 7 days. The class given is functional. Particulars: 168 h.
Test [9] concerns Helicoverpa armigera. The test can be described thus: Antifeedant activity against third-instar larval stage of Helicoverpa armigera fed with artificial diet containing compound assessed as relative growth rate at 6.02 mg/ml after 3 days (reference value: 0.97 +/- 0.13 mg/mg/day). The class given is functional.
In test [10] the test system is Helicoverpa armigera. The test is described as follows: Insecticidal activity against second-instar larval stage of Helicoverpa armigera assessed as increase in mortality applied as spray at 1 to 10 mg/ml after 72 hr. The class given is functional, organism-based.
Test [11] concerns Helicoverpa armigera. The test is described as follows: Antifeedant activity against third-instar larval stage of Helicoverpa armigera fed with artificial diet containing compound assessed as relative consumption rate at 6.02 mg/ml after 3 days (reference value: 1.88 +/- 0.14 mg/mg/day). The class given is functional.
For test [12], the system named is Helicoverpa armigera. The test can be described thus: Insecticidal activity against second-instar larval stage of Helicoverpa armigera fed with artificial diet containing compound assessed as mortality after 7 days. The class given is functional. The note with it: 168 h.
Test [13] has as its system Spodoptera litura. The test can be described thus: Antifeedant activity against third-instar larval stage of Spodoptera litura fed with artificial diet containing compound assessed as relative growth rate at 3.98 mg/ml after 3 days (reference value: 1.37 +/- 0.12 mg/mg/day). The class given is functional.
Test [14] has as its system Helicoverpa armigera. The test is described as follows: Antifeedant activity against third-instar larval stage of Helicoverpa armigera fed with artificial diet containing compound assessed as relative consumption rate at 3.94 mg/ml after 3 days (reference value: 1.88 +/- 0.14 mg/mg/day). Type of test: functional.
Test [15] concerns Helicoverpa armigera. The test is described as follows: Antifeedant activity against third-instar larval stage of Helicoverpa armigera fed with artificial diet containing compound assessed as relative growth rate at 3.94 mg/ml after 3 days (reference value: 0.97 +/- 0.13 mg/mg/day). The class given is functional.
In test [16] the test system is Helicoverpa armigera. The test can be described thus: Antifeedant activity against third-instar larval stage of Helicoverpa armigera fed with artificial diet containing compound assessed as efficiency index of ingested food at 3.94 mg/ml after 3 days (reference value: 52%). The class given is functional.
The subject of test [17] is Spodoptera litura. The test can be described thus: Insecticidal activity against second-instar larval stage of Spodoptera litura assessed as mortality applied as spray after 72 hr. The class given is functional.
For test [18], the system named is Spodoptera litura. The test can be described thus: Antifeedant activity against third-instar larval stage of Spodoptera litura fed with artificial diet containing compound assessed as relative consumption rate at 3.98 mg/ml after 3 days (reference value: 2.13 +/- 0.18 mg/mg/day). The class given is functional.
Test [19] relates to Spodoptera litura. The test can be described thus: Antifeedant activity against third-instar larval stage of Spodoptera litura fed with artificial diet containing compound assessed as efficiency index of ingested food at 3.98 mg/ml after 3 days (reference value: 64.5%). The class given is functional.
The test system of test [20] is Helicoverpa armigera. The test can be described thus: Insecticidal activity against second-instar larval stage of Helicoverpa armigera assessed as mortality applied as spray after 72 hr. The class given is functional.

Regarding `CCCC(=O)OCCOC(=O)CCC` [ETHYLENE GLYCOL DIBUTANOATE], the ECI in the test on Helicoverpa armigera [1] is reported as 32.4%; in the test with Spodoptera litura [6] it was 2%. The “growth inhibition (GI)” value in the test with Helicoverpa armigera [2] and with Spodoptera litura [3] was “Dose-dependent effect” throughout. Moreover, the EC50 is 2820 µg/mL (≈ 13.9 mM) in the test on Helicoverpa armigera [2] and 1850 µg/mL (≈ 9.15 mM) in the test on Spodoptera litura [3]. Further, the Activity in the test on Spodoptera litura [4] was found to be 2.04 mg/mg/day; in the test on Spodoptera litura [7], 0.74 mg/mg/day; in the test on Helicoverpa armigera [9] it was 0.55 mg/mg/day; in the test on Helicoverpa armigera [11] it was 1.7 mg/mg/day. In addition, the outcome with Spodoptera litura [5] and in the test on Helicoverpa armigera [10] was Active. Moreover, the LC50 with Spodoptera litura [8] and in the test with Helicoverpa armigera [12] was 2000 µg/mL (≈ 9.89 mM) throughout.
`CCCCCCCC(=O)OCCOC(=O)CCCCCCC` [ETHYLENE GLYCOL DIOCTANOATE]: the Activity in the test with Spodoptera litura [13] was found to be 0.72 mg/mg/day; with Helicoverpa armigera [14], 1.9 mg/mg/day; in the test with Helicoverpa armigera [15], 0.69 mg/mg/day; in the test with Spodoptera litura [18], 2 mg/mg/day. Also, the “growth inhibition (GI)” value with Helicoverpa armigera [2] and with Spodoptera litura [3] was “Dose-dependent effect” throughout. Besides, the figures for the EC50 in the test on Helicoverpa armigera [2] and in the test with Spodoptera litura [3] were 2080 µg/mL (≈ 6.61 mM) and 1980 µg/mL (≈ 6.3 mM), respectively. Also, the LC50 is 2000 µg/mL (≈ 6.36 mM) with Spodoptera litura [8], 6100 µg/mL (≈ 19.4 mM) with Spodoptera litura [17], 6500 µg/mL (≈ 20.7 mM) in the test on Helicoverpa armigera [20] and 3140 µg/mL (≈ 9.99 mM) in the test with Helicoverpa armigera [12]. Also, the ECI came to 36.5% with Helicoverpa armigera [16] and 8% in the test with Spodoptera litura [19].
